Values after ≈ are worked out from the molar mass of the structure shown.
Experiments:
keratinocyte = conditions: cited from earlier work
[1] = Test Example 2: Physical Stability (mixed α/β crystals stirred in solvent, crystal form by infrared absorption spectrum); assay type: physicochemical
Procedure: The α-form crystal (1 part by weight) and the β-form crystal (1 part by weight) were mixed, suspended in a solvent (ethyl acetate/ethanol=5/1.5 parts by weight) and stirred at 26, 70 or 100° C.
Sampling was carried out over time and crystal forms were measured by the infrared absorption spectrum.

[2] = Test Example 4: Stability (HPLC purity and crystal form on storage); assay type: physicochemical; conditions: for Purity (%): HPLC
Procedure: The α-form crystal and the β-form crystal were preserved under the conditions of 40 or 60° C. and a relative humidity of 75%.
Twelve weeks after the test started, the purity was measured by HPLC. Additionally, crystal forms were measured by the infrared absorption spectrum.
HPLC Measurement conditions
Measurement wavelength: 270 nm
Column: Ascentis Express C18, inner diameter 3.0 mm×length 150 mm
Column temperature: 40° C.
Mobile phase: 0.1% phosphoric acid/(acetonitrile/water=60/40) solution

[3] = Test Example 1: Solubility in various organic solvents; assay type: physicochemical; conditions: for solubility at 24 h: organic solvent or mixture, thermodynamic from solid; for solubility at 24 h / Solubility: stirred for 24 hours
Procedure: The α-form crystal (about 100 mg) or the β-form crystal (about 100 mg) was suspended in various organic solvents (about 1 mL) and stirred for 24 hours. Impurities were filtered off using a membrane filter and the filtrate was analyzed by HPLC to determine the solubility.

[4] = Test Example 3: Hygroscopicity (rate of weight change and crystal form); assay type: physicochemical; conditions: for Stability (hygroscopicity test): 25° C., relative humidity of 75 or 97%
Procedure: The α-form crystal and the β-form crystal were preserved under the conditions of 25° C. and a relative humidity of 75 or 97%.
Sampling was carried out over time and the weights of crystals were measured to determine rates of weight changes. Additionally, crystal forms were measured by the infrared absorption spectrum.
Rate of weight change (%)=((B−A)/A)×100
A: Crystal weight before the test started
B: Crystal weight after the test started

SMILES | Crystal form ([2]; 40° C. 75% RH, 0 hr) | Purity (%) ([2]; 40° C. 75% RH, 0 hr) | Crystal form ([2]; 40° C. 75% RH, 12 weeks) | Purity (%) ([2]; 40° C. 75% RH, 12 weeks) | Crystal form ([2]; 60° C. 75% RH, 0 hr) | Purity (%) ([2]; 60° C. 75% RH, 0 hr) | Crystal form ([2]; 60° C. 75% RH, 12 weeks) | Purity (%) ([2]; 60° C. 75% RH, 12 weeks) | Crystal form ([4]; 25° C. 75% RH, 0 hr) | Rate of weight change (%) ([4]; 25° C. 75% RH, 0 hr) | Crystal form ([4]; 25° C. 75% RH, 2 weeks) | Rate of weight change (%) ([4]; 25° C. 75% RH, 2 weeks) | Crystal form ([4]; 25° C. 75% RH, 4 weeks) | Rate of weight change (%) ([4]; 25° C. 75% RH, 4 weeks) | Crystal form ([4]; 25° C. 75% RH, 8 weeks) | Rate of weight change (%) ([4]; 25° C. 75% RH, 8 weeks) | Crystal form ([4]; 25° C. 75% RH, 12 weeks) | Rate of weight change (%) ([4]; 25° C. 75% RH, 12 weeks) | Crystal form ([4]; 25° C. 97% RH, 0 hr) | Rate of weight change (%) ([4]; 25° C. 97% RH, 0 hr) | other results
O=C(O)c1cc(C2CC2)cnc1Nc1ccc2c(ccn2Cc2cccc(F)c2)c1 [Compound A, 5-Cyclopropyl-2-((1-(3-fluorobenzyl)-1H-indol-5-yl)amino)nicotinic acid] | – | – | – | – | – | – | – | – | – | – | – | – | – | – | – | – | – | – | – | – | Antiproliferative activity on keratinocyte (keratinocyte): excellent antiproliferative activity on keratinocyte
O=C(O)c1cc(C2CC2)cnc1Nc1ccc2c(ccn2Cc2cccc(F)c2)c1 [α-Form crystal, 5-cyclopropyl-2-((1-(3-fluorobenzyl)-1H-indol-5-yl)amino)nicotinic acid] | α | 99.4 | α | 99.5 | α | 99.4 | α | 99.5 | α | 0.00 | α | 0.08 | α | 0.08 | α | 0.24 | α | 0.22 | α | 0.00 | Crystal transition ([1]; mixed crystals stirred at 26, 70 or 100° C.): transitioned to the β-form crystal; solubility at 24 h ([3]; 2-propanol): 3.5 mg/mL (≈ 8.72 mM); solubility at 24 h ([3]; acetone): 55 mg/mL (≈ 137 mM); solubility at 24 h ([3]; acetonitrile): 3.1 mg/mL (≈ 7.72 mM); solubility at 24 h ([3]; ethanol): 8.8 mg/mL (≈ 21.9 mM); solubility at 24 h ([3]; ethyl acetate): 19.7 mg/mL (≈ 49.1 mM); solubility at 24 h ([3]; isopropyl acetate): 11.5 mg/mL (≈ 28.6 mM); solubility at 24 h ([3]; methyl ethyl ketone): 63.1 mg/mL (≈ 157 mM); solubility at 24 h ([3]; methyl tert-butyl ether): 10.1 mg/mL (≈ 25.2 mM); Crystal form ([4]; 25° C. 97% RH, 2 weeks): α; Rate of weight change (%) ([4]; 25° C. 97% RH, 2 weeks): 0.13%; Crystal form ([4]; 25° C. 97% RH, 4 weeks): α; Rate of weight change (%) ([4]; 25° C. 97% RH, 4 weeks): 0.17%; Crystal form ([4]; 25° C. 97% RH, 8 weeks): α; Rate of weight change (%) ([4]; 25° C. 97% RH, 8 weeks): 0.38%; Crystal form ([4]; 25° C. 97% RH, 12 weeks): α; Rate of weight change (%) ([4]; 25° C. 97% RH, 12 weeks): 0.32%; Stability (hygroscopicity test) [4]: stable
O=C(O)c1cc(C2CC2)cnc1Nc1ccc2c(ccn2Cc2cccc(F)c2)c1 [β-Form crystal, 5-cyclopropyl-2-((1-(3-fluorobenzyl)-1H-indol-5-yl)amino)nicotinic acid] | β | 99.6 | β | 99.7 | β | 99.6 | β | 99.7 | β | 0.00 | β | 0.07 | β | 0.07 | β | 0.20 | β | 0.18 | β | 0.00 | Relative stability of crystal forms ([1]; concluded from crystal transition in suspension): more stable than the α-form crystal; Solubility ([3]; 2-Propanol): 3.0 mg/mL (≈ 7.47 mM); Solubility ([3]; Acetone): 48.9 mg/mL (≈ 122 mM); Solubility ([3]; Acetonitrile): 2.7 mg/mL (≈ 6.73 mM); Solubility ([3]; Ethanol): 6.8 mg/mL (≈ 16.9 mM); Solubility ([3]; Ethyl acetate): 16.8 mg/mL (≈ 41.8 mM); Solubility ([3]; Isopropyl acetate): 9.8 mg/mL (≈ 24.4 mM); Solubility ([3]; Methyl ethyl ketone): 55.3 mg/mL (≈ 138 mM); Solubility ([3]; Methyl tert-butyl ether): 8.1 mg/mL (≈ 20.2 mM); Relative stability of crystal forms ([3]; concluded from solubility): more stable than the α-form crystal; Solubility compared between crystal forms ([3]; various organic solvents): lower than the solubility of the α-form crystal; Crystal form ([4]; 25° C. 97% RH, 2 weeks): β; Rate of weight change (%) ([4]; 25° C. 97% RH, 2 weeks): 0.10%; Crystal form ([4]; 25° C. 97% RH, 4 weeks): β; Rate of weight change (%) ([4]; 25° C. 97% RH, 4 weeks): 0.11%; Crystal form ([4]; 25° C. 97% RH, 8 weeks): β; Rate of weight change (%) ([4]; 25° C. 97% RH, 8 weeks): 0.26%; Crystal form ([4]; 25° C. 97% RH, 12 weeks): β; Rate of weight change (%) ([4]; 25° C. 97% RH, 12 weeks): 0.25%; Stability (hygroscopicity test) [4]: stable

— patent publication US10174001B2, “Crystals of 5-cyclopropyl-2-((1-(3-fluorobenzyl)-1H-indol-5-yl)amino)nicotinic acid” (FUJIFILM Toyama Chemical Co., Ltd., priority 2015, dated 2019)
